Activity calls are given as the source filed them. The calls are words filed in the database; no cut-off is given here.
What was measured:
Homo sapiens = organism: Homo sapiens; test: Selectivity ratio of IC50 for inhibition of PAK2 (unknown origin) to IC50 for inhibition of PAK1 (unknown origin)
[1] = molecular target: T1, Serine/threonine-protein kinase PAK 1 (Homo sapiens, UniProt Q13153); test: Inhibition of PAK1 (unknown origin) […] measured after 40 mins by ADP-glo kinase assay
[2] = molecular target: Serine/threonine-protein kinase PAK 3 (Homo sapiens, UniProt O75914); test: Inhibition of PAK3 (unknown origin) […] measured after 40 mins by ADP-glo kinase assay
Serine/threonine-protein kinase PAK 3, sequence (O75914 whole entry): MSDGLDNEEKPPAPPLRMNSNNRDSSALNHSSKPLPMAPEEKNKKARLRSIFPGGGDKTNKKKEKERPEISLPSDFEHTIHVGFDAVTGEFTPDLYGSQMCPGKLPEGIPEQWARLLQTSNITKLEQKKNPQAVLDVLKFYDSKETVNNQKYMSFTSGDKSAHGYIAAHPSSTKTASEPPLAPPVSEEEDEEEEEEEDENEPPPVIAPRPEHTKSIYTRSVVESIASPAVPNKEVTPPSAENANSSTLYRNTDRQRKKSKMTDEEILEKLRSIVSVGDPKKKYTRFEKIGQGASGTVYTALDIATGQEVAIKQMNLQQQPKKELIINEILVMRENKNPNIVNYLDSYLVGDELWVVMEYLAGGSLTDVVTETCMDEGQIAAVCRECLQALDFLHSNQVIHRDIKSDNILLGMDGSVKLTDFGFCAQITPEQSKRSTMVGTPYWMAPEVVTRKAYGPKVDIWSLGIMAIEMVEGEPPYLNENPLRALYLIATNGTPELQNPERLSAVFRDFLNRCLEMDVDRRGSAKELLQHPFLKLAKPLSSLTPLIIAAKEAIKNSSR

[3] = molecular target: T1, Serine/threonine-protein kinase PAK 1; test: Inhibition of PAK1 phosphorylation at Ser199 residues in human MDA-MB-231 cells at 10 to 40 uM measured after 24 hrs by Western blot analysis; assay type: cell-based; settings: dose 10-40 µM
[4] = molecular target: T1, Serine/threonine-protein kinase PAK 1; test: Inhibition of PAK1 in human MDA-MB-231 cells assessed as reduction in ERK expression at 10 to 40 uM measured after 24 hrs by Western blot analysis; assay type: cell-based; settings: dose 10-40 µM
[5] = molecular target: T1, Serine/threonine-protein kinase PAK 1; test: Inhibition of PAK1 in human MDA-MB-231 cells assessed as reduction in c-Raf phosphorylation at Ser259 residues at 10 to 40 uM measured after 24 hrs by Western blot analysis; assay type: cell-based; settings: dose 10-40 µM
[6] = molecular target: T1, Serine/threonine-protein kinase PAK 1; test: Inhibition of PAK1 in human MDA-MB-231 cells assessed as reduction in MEK1/2 phosphorylation at ser217/221 residues at 10 to 40 uM measured after 24 hrs by Western blot analysis; assay type: cell-based; settings: dose 10-40 µM
MDA-MB-231 [7] = test: Induction of apoptosis in human MDA-MB-231 cells assessed as increase in DNA fragmentation at 10 to 40 uM measured after 24 hrs by Hoechst 33258 staining based assay; assay type: functional, cell-based; settings: dose 10-40 µM
MDA-MB-231 [8] = test: Induction of apoptosis in human MDA-MB-231 cells assessed as increase in late apoptosis measured after 24 hrs by Annexin V-FITC/propidium iodide staining based flow cytometry; assay type: functional, cell-based
MDA-MB-231 [9] = test: Induction of apoptosis in human MDA-MB-231 cells assessed as late apoptotic cells at 10 uM measured after 24 hrs by Annexin V-FITC/propidium iodide staining based flow cytometry (reference value: 0.57%); assay type: functional
MDA-MB-231 [10] = test: Induction of apoptosis in human MDA-MB-231 cells assessed as late apoptotic cells at 20 uM measured after 24 hrs by Annexin V-FITC/propidium iodide staining based flow cytometry (reference value: 0.57%); assay type: functional
MDA-MB-231 [11] = test: Induction of apoptosis in human MDA-MB-231 cells assessed as necrotic cells at 20 uM measured after 24 hrs by Annexin V-FITC/propidium iodide staining based flow cytometry (reference value: 0.16%); assay type: functional
MDA-MB-231 [12] = test: Induction of apoptosis in human MDA-MB-231 cells assessed as viable cells at 40 uM measured after 24 hrs by Annexin V-FITC/propidium iodide staining based flow cytometry (reference value: 98.46%); assay type: functional; settings: read-out: Activity
MDA-MB-231 [13] = test: Induction of apoptosis in human MDA-MB-231 cells assessed as late apoptotic cells at 40 uM measured after 24 hrs by Annexin V-FITC/propidium iodide staining based flow cytometry (reference value: 0.57%); assay type: functional
MDA-MB-231 [14] = test: Induction of apoptosis in human MDA-MB-231 cells assessed as increase in caspase-3 cleavage at 10 to 40 uM measured after 24 hrs by Western blot analysis; assay type: functional, cell-based; settings: dose 10-40 µM
MDA-MB-231 [15] = test: Induction of apoptosis in human MDA-MB-231 cells assessed as increase in caspase-8 cleavage at 10 to 40 uM measured after 24 hrs by Western blot analysis; assay type: functional, cell-based; settings: dose 10-40 µM
[16] = Effect on PPP1R15A gene expression in human MDA-MB-231 cells by Trizol reagent based RNA sequencing analysis relative to control; assay type: functional
[17] = Effect on HYOU1 gene expression in human MDA-MB-231 cells by Trizol reagent based RNA sequencing analysis relative to control; assay type: functional
[18] = Effect on SHMT2 gene expression in human MDA-MB-231 cells by Trizol reagent based RNA sequencing analysis relative to control; assay type: functional
[19] = Effect on G0S2 gene expression in human MDA-MB-231 cells by Trizol reagent based RNA sequencing analysis relative to control; assay type: functional
[20] = Effect on STC2 gene expression in human MDA-MB-231 cells by Trizol reagent based RNA sequencing analysis relative to control; assay type: functional
[21] = Effect on EGR1 gene expression in human MDA-MB-231 cells by Trizol reagent based RNA sequencing analysis relative to control; assay type: functional
[22] = Effect on TRIB3 gene expression in human MDA-MB-231 cells by Trizol reagent based RNA sequencing analysis relative to control; assay type: functional
[23] = Effect on JUN gene expression in human MDA-MB-231 cells by Trizol reagent based RNA sequencing analysis relative to control; assay type: functional
[24] = Effect on GPT2 gene expression in human MDA-MB-231 cells by Trizol reagent based RNA sequencing analysis relative to control; assay type: functional
[25] = Effect on CASC10 gene expression in human MDA-MB-231 cells by Trizol reagent based RNA sequencing analysis relative to control; assay type: functional
[26] = Effect on ALPP gene expression in human MDA-MB-231 cells by Trizol reagent based RNA sequencing analysis relative to control; assay type: functional
[27] = Effect on BEX2 gene expression in human MDA-MB-231 cells by Trizol reagent based RNA sequencing analysis relative to control; assay type: functional
[28] = Effect on CTGF gene expression in human MDA-MB-231 cells by Trizol reagent based RNA sequencing analysis relative to control; assay type: functional
[29] = Effect on TCP10L gene expression in human MDA-MB-231 cells by Trizol reagent based RNA sequencing analysis relative to control; assay type: functional
MDA-MB-231 [30] = test: Upregulation of ATF4 expression in human MDA-MB-231 cells at 10 to 40 uM measured after 24 hrs by Western blot analysis; assay type: functional, cell-based; settings: dose 10-40 µM
MDA-MB-231 [31] = test: Upregulation of XBP-1s expression in human MDA-MB-231 cells at 10 to 40 uM measured after 24 hrs by Western blot analysis; assay type: functional, cell-based; settings: dose 10-40 µM
MDA-MB-231 [32] = test: Upregulation of CHOP expression in human MDA-MB-231 cells at 10 to 40 uM measured after 24 hrs by Western blot analysis; assay type: functional, cell-based; settings: dose 10-40 µM
MDA-MB-231 [33] = test: Down regulation of JNK expression in human MDA-MB-231 cells at 20 uM measured after 24 hrs by immunofluorescence assay; assay type: functional, cell-based
[34] = molecular target: Mitogen-activated protein kinase 8/9 (Homo sapiens) (UniProt P45983+P45984); test: Inhibition of JNK1/2 in human MDA-MB-231 cells assessed as reduction in SAPK/JNK phosphorylation at […] residues at 10 to 40 uM after 24 hrs by Western blot analysis; assay type: cell-based; settings: dose 10-40 µM
Mitogen-activated protein kinase 8/9 (Homo sapiens), sequence (P45983 whole entry, looked up): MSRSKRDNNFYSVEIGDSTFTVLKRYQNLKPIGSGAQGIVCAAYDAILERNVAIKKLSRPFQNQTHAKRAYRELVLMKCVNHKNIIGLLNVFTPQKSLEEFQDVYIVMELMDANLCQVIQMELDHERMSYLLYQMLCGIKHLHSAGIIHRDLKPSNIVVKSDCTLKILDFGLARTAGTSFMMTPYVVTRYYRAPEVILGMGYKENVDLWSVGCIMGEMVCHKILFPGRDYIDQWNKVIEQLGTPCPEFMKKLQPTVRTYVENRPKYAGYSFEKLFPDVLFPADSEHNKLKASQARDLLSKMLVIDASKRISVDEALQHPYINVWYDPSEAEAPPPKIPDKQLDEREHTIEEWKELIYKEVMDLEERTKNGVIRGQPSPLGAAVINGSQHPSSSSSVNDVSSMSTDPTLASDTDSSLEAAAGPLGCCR
Mitogen-activated protein kinase 8/9 (Homo sapiens), sequence (P45984 whole entry, looked up): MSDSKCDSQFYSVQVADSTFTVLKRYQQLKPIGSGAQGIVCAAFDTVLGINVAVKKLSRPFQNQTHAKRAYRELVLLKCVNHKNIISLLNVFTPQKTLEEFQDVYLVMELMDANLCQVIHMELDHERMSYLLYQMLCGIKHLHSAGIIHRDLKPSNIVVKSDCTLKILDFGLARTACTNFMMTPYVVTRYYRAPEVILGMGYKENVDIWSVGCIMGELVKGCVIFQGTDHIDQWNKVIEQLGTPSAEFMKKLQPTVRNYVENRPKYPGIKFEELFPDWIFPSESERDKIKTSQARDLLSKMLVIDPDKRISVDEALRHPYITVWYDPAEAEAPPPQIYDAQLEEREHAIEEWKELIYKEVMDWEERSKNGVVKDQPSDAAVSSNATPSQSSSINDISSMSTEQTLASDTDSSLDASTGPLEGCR

MDA-MB-231 [35] = test: Inhibition of human MDA-MB-231 cell migration measured after 24 hrs by phase contrast microscopy based transwell assay; assay type: functional
MDA-MB-231 [36] = test: Up regulation of E-cadherin expression in human MDA-MB-231 cells at 10 to 40 uM measured after 24 hrs by Western blot analysis; assay type: functional, cell-based; settings: dose 10-40 µM
MDA-MB-231 [37] = test: Up regulation of MMP-2 expression in human MDA-MB-231 cells at 10 to 40 uM measured after 24 hrs by Western blot analysis; assay type: functional, cell-based; settings: dose 10-40 µM

T1 sequence (Q13153 whole entry): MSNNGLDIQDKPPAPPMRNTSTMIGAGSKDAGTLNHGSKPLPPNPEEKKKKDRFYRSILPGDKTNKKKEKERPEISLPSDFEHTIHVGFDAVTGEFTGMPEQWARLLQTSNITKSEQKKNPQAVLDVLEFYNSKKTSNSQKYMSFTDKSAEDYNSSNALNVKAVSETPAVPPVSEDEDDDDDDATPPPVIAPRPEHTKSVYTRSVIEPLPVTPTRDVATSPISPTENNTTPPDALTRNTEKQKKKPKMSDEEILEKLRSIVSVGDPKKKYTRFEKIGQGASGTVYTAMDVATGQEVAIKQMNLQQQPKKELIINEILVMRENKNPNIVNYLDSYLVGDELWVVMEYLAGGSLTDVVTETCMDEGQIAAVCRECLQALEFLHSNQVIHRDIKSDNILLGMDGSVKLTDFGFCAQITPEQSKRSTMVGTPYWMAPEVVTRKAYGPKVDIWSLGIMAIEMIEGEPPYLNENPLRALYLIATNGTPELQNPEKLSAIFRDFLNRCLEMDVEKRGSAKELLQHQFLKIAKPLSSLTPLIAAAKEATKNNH

For O=C(Nc1cc(C(F)(F)F)cc(C(F)(F)F)c1)NC1CCN(c2ncnc3[nH]ncc23)CC1, the Ratio IC50 (Homo sapiens) was 5, the IC50 [1] was 170 nM and the IC50 [2] was 1370 nM. The inhibition [3] was “Active”, the inhibition [4] was “Active” and the inhibition [5] was “Active”. The inhibition [6] was “Active”, the Activity (MDA-MB-231 [7]) was “Active” and the Activity (MDA-MB-231 [8]) was “Dose-dependent effect”. For the same compound, the Activity (MDA-MB-231 [9]) was 3.22%, the Activity (MDA-MB-231 [10]) was 6.91% and the Activity (MDA-MB-231 [11]) was 0.59%. For the same compound, the viability at 40 µM (MDA-MB-231 [12]) was 72.2%, the Activity (MDA-MB-231 [13]) was 12.06% and the Activity (MDA-MB-231 [14]) was “Active”. The Activity (MDA-MB-231 [15]) was “Active”, the “fold change (FC)” value [16] was over 2 and the “fold change (FC)” value [17] was over 2. The “fold change (FC)” value [18] was over 2, the “fold change (FC)” value [19] was over 2 and the “fold change (FC)” value [20] was over 2. For the same compound, the “fold change (FC)” value [21] was over 2, the “fold change (FC)” value [22] was over 2 and the “fold change (FC)” value [23] was over 2. For the same compound, the “fold change (FC)” value [24] was over 2, the “fold change (FC)” value [25] was over 2 and the “fold change (FC)” value [26] was over 2. The “fold change (FC)” value [27] was over 2, the “fold change (FC)” value [28] was over 2 and the “fold change (FC)” value [29] was over 2. The Activity (MDA-MB-231 [30]) was “Active”, the Activity (MDA-MB-231 [31]) was “Active” and the Activity (MDA-MB-231 [32]) was “Active”. For the same compound, the Activity (MDA-MB-231 [33]) was “inactive”, the inhibition [34] was “Active” and the inhibition (MDA-MB-231 [35]) was “Active”. For the same compound, the Activity (MDA-MB-231 [36]) was “Active” and the Activity (MDA-MB-231 [37]) was “Active”.
